Measurements published in patent US20190345138A1, “HETEROCYCLIC AMIDES AS KINASE INHIBITORS” (GlaxoSmithKline Intellectual Property Development Limited, priority 2016, published 2019).
“And” between values parts separate entries of the source, which are not always exact repeats. Equal values may be shown once.

What was measured:
[1] = test system: mouse L929 fibrosarcoma cells; experiment: necroptosis assay in L929 cells; format: cell-based; details: L929 cells, viability by cellular ATP (Cell Titer-Glo), read-out: pIC50, inhibited necrosis in L929 cells (converted)
Protocol: The efficacy of RIP1 inhibitors can be tested […] in vitro using a human monocytic leukemia U937 or mouse L929 fibrosarcoma cells in a necroptosis assay. As determined using the method described in S. He et al., Cell, 137(6):1100-1111 (2009) and International Patent Appln. No. PCT/IB2014/059004, now, International Patent Appln. Pub.
Viability was measured by quantitating cellular levels of ATP using the Cell Titer-Glo kit. All data are means±standard deviation of the mean.

RIP1 kinase = target: T1, RIP1 kinase (Homo sapiens, UniProt Q13546); experiment: fluorescent polarization based binding assay; details: mean of a minimum of 2 experiments
T1 sequence (Q13546 1-375 limits assumed): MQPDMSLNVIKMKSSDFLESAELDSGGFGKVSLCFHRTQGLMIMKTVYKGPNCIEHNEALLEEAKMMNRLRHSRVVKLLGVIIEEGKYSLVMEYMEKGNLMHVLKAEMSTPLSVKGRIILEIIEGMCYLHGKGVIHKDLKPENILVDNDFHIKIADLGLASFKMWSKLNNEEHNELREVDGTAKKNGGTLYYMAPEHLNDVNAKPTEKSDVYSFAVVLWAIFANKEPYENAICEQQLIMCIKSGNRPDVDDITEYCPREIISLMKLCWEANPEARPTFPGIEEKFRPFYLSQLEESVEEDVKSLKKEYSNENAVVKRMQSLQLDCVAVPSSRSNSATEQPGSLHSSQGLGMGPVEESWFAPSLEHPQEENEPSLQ
Description: A fluorescent polarization based binding assay was used to assess the activity of the compounds of this invention, the details of which are disclosed in International Patent Appln. No. PCT/IB2014/059004, now, International Patent Appln. Pub.

[2] = test system: TNF-driven systemic inflammatory response syndrome model; experiment: TNF-driven systemic inflammatory response syndrome model (TNF/zVAD or TNF alone), temperature loss; format: in vivo; details: Mus musculus, po, pre-dosed 15 minutes before i.v. mouse TNF alone or with zVAD; for inhibition in vivo at 10 mg/kg: 10 mg/kg PO; for inhibition in vivo at 3 mg/kg: 3 mg/kg PO
Description: The efficacy of RIP1 inhibitors can be tested in mice in vivo using a TNF-driven systemic inflammatory response syndrome model (L. Duprez et al. Immunity 35(6):908-918, (2011)) using TNF plus the caspase inhibitor zVAD or TNF alone. The TNF/zVAD model is terminated at ˜3 hrs and the TNF alone model is terminated at ˜8 hrs (under IACUC guidelines for temperature loss). TNF (or TNF/zVAD) induced manifestations include temperature loss, the production of numerous cytokines (including IL-6, IL-1b, MIP1β and MIP2) in the periphery, liver and intestinal inflammation and an increase of markers of cellular (LDH and CK) and liver damage (AST and ALT) in the serum. Inhibition of these TNF alone or TNF/zVAD induced manifestations can be shown by PO pre-dosing with selected compounds. For example, mice (8 mice per group) were pre-dosed PO with vehicle or compound 15 minutes before i.v. administration of mouse TNF (30 μg/mouse) alone or in combination with zVAD (0.4 mg/mouse) simultaneously. Temperature loss in the mice was measured by rectal probe. The study was terminated when the control group lost 7 degrees, per our IACUC protocol. All data are shown as means±standard error of the mean.

[3] = test system: human monocytic leukemia U937 cells; experiment: necroptosis assay in U937 cells; format: cell-based; details: viability by cellular ATP (Cell Titer-Glo); for IC50: Homo sapiens, U-937, U937 cells, read-out: pIC50, inhibited necrosis in U937 cells (converted)
Method in brief: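 Necroptosis was induced in human U937 or mouse L929 cells, and viability was quantified as cellular ATP with Cell Titer-Glo. Data are means±standard deviation.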

[4] = background statement; cited from earlier work

| Structure (SMILES) | IC50 (RIP1 kinase) | IC50 [1] [nM] | inhibition in vivo at 10 mg/kg [2] [%] | also measured |
| --- | --- | --- | --- | --- |
| N#Cc1cccc([C@@H]2CC=NN2C(=O)C2CCN(c3nccc(C(N)=O)n3)CC2)c1 [Example 71, (S)-2-(4-(5-(3-cyanophenyl)-4,5-dihydro-1H-pyrazole-1-carbonyl)piperidin-1-yl)pyrimidine-4-carboxamide] | 1 to 31.6 nM and ~15.8 nM | ~794 | 93 | – |
| NC(=O)c1cc(N2CCC(C(=O)N3N=CC[C@H]3c3cc(F)cc(F)c3)CC2)ncn1 [Example 85, (S)-6-(4-(5-(3,5-difluorophenyl)-4,5-dihydro-1H-pyrazole-1-carbonyl)piperidin-1-yl)pyrimidine-4-carboxamide] | 1 to 31.6 nM and 1 to 10 nM and ~10 nM | ~316 | – | inhibition in vivo at 3 mg/kg [2]: 88% |
| NC(=O)c1ccnc(N2CCC(C(=O)N3N=CC[C@H]3c3cncc(F)c3)CC2)n1 [Example 109, (S)-2-(4-(5-(5-fluoropyridin-3-yl)-4,5-dihydro-1H-pyrazole-1-carbonyl)piperidin-1-yl)pyrimidine-4-carboxamide] | 1 to 31.6 nM and ~25.1 nM | ~251 | – | inhibition in vivo at 3 mg/kg [2]: 84% |
| CN1C(=O)C(Cc2c[nH]c3ccccc23)NC1=S (stereo not drawn) [Necrostatin-1] | – | – | – | oral bioavailability [4]: poor |

Now from value to compound, other results behind:

| IC50 (RIP1 kinase) | Structure (SMILES) | IC50 [1] [nM] | inhibition in vivo at 10 mg/kg [2] [%] | also measured |
| --- | --- | --- | --- | --- |
| 1 to 31.6 nM and ~15.8 nM | Nc1cc(N2CCC(C(=O)N3N=CC[C@H]3c3ccccc3)CC2)ncn1 [Example 20, (S)-(1-(6-aminopyrimidin-4-yl)piperidin-4-yl)(5-phenyl-4,5-dihydro-1H-pyrazol-1-yl)methanone] | ~1000 | 92 | – |
| 1 to 31.6 nM and 1 to 10 nM and ~10 nM | NC(=O)c1cc(N2CCC(C(=O)N3N=CC[C@H]3c3ccccc3)CC2)ncn1 [Example 32, (S)-6-(4-(5-phenyl-4,5-dihydro-1H-pyrazole-1-carbonyl)piperidin-1-yl)pyrimidine-4-carboxamide] | ~316 | 104 | – |
| 1 to 31.6 nM and ~31.6 nM | NC(=O)c1cc(N2CCC(C(=O)N3N=CC[C@H]3c3cncc(F)c3)CC2)ncn1 [Example 108, (S)-6-(4-(5-(5-fluoropyridin-3-yl)-4,5-dihydro-1H-pyrazole-1-carbonyl)piperidin-1-yl)pyrimidine-4-carboxamide] | ~10000 | 54 | pIC50, inhibited necrosis in U937 cells ([3]; U937 cells): ~7.3; inhibition in vivo at 0.1 mg/kg ([2]; 0.1 mg/kg PO): -4%; inhibition in vivo at 1 mg/kg ([2]; 1.0 mg/kg PO): -11%; inhibition in vivo at 100 mg/kg ([2]; 100 mg/kg PO): 94% |
| ~39.8 nM | NC(=O)c1cnc(N2CCC(C(=O)N3N=CC[C@H]3c3ccccc3)CC2)nc1 [Example 131, (S)-2-(4-(5-phenyl-4,5-dihydro-1H-pyrazole-1-carbonyl)piperidin-1-yl)pyrimidine-5-carboxamide] | ~3980 | 83 | IC50 [3]: ~158 nM |
| 1 to 31.6 nM and 1 to 10 nM | NC(=O)c1nc(N2CCC(C(=O)N3N=CC[C@H]3c3ccccc3)CC2)ncc1F [Example 162, (S)-5-fluoro-2-(4-(5-phenyl-4,5-dihydro-1H-pyrazole-1-carbonyl)piperidin-1-yl)pyrimidine-4-carboxamide] | 1 to 100 | – | IC50 [3]: 1 to 100 nM |
